Results published in patent US20250152723A1, “ANTIBODY-DRUG CONJUGATES INVOLVING ERIANIN AND THE FABRICATION METHODS AND APPLICATIONS THEREOF” (Laboratory for Synthetic Chemistry and Chemical Biology …, priority 2023, published 2025).

How the values were obtained:
[1] = system: SK-OV-3 ovarian cancer cell (HER2+); experiment: In vitro anti-proliferative study (NBB staining, 6 days); type: cell-based, human; conditions: SK-OV-3 (HER2+), 6 days incubation, mean±SD
Protocol: (§1) Briefly, Different cell lines (1×10^3 cells/well) are seeded in a microtiter plate (96 well) and incubated overnight before the treatment. […] After the media is removed, the cells are fixed with formaldehyde (3%; 50 μL) in PBS and stained with NBB reagent (0.05%, 0.1 M sodium acetate, 9% acetic acid; 50 μL) for overnight. The stained cells in each well are washed thrice gently with deionized water and solubilized in sodium hydroxide solution (50 mM; 100 μL). The cell viability is determined by measuring the absorbance of 620 nm in each well by microplate reader. The experiments are repeated in triplicate. The IC50 values are presented as the mean±standard deviation.

[2] = system: HER2-positive SK-OV-3 human ovarian cancer xenograft; experiment: Antitumor activity in SK-OV-3 xenograft model; type: in vivo, Female BALB/cAnN-nu (nude) mice; conditions: 50 mg/kg intravenous, four doses (day 0, 4, 8, 12), compared to vehicle control
Protocol: Female BALB/cAnN-nu (nude) mice (5-8 weeks old) are housed in the Laboratory Animal Unit, The University of Hong Kong. The mice are freely access to food and water. SKOV-3 ovarian cancer cells (1×10^7) in PBS (100 μL) are injected into the right flanks of each mouse subcutaneously. […] The mice are treated with intravenous administration of a total of four doses on day 0, 4, 8 and 12. The tumor size and body weight are monitored during the treatment. After 28 days, the mice are sacrificed and the tumor weight is measured.

[3] = system: MDA-MB-231 breast cancer cell (HER2−); experiment: In vitro anti-proliferative study (NBB staining, 6 days); type: cell-based; conditions: MDA-MB-231 (HER2−), 6 days incubation, mean±SD
Protocol: as §1

[4] = system: MCF-10A breast epithelial cell (HER2−); experiment: as above; type: cell-based; conditions: MCF-10A (HER2−), 6 days incubation, mean±SD
Protocol: as §1

[5] = system: SK-BR-3 breast cancer cell (HER2+); experiment: as above; type: cell-based; conditions: SK-BR-3 (HER2+), 6 days incubation, mean±SD
Protocol: as §1

With `COc1ccc(CCc2cc(OC)c(OC)c(OC)c2)cc1O` [Erianin, erianin] the IC50 [1] was 21.4 ± 0.3 nM, the tumor growth suppression [2] was “no effect” and the IC50 [3] was 21.6 ± 0.2 nM. It also gave an IC50 [4] of 25.7 ± 0.2 nM and an IC50 [5] of 24.1 ± 0.1 nM.
